This is an account of results in US8969297B2, “Methods and compositions for the induction of hypothermia” (priority 2009, dated 2015).

Data set [1] has as its system asphyxial cardiac arrest rat model. Put plainly: Survival in rat outcome model of asphyxial cardiac arrest. It is filed as in vivo. The settings on record: for Survival days: individual rats; for effect on mortality / neurological deficit score: compound alone under normothermic conditions. The protocol: (§1) The outcome model of asphyxial cardiac arrest in rats was used for these studies and has been described previously (Katz et al. (1995) J Cereb Blood Flow Metab 15:1032-1039). Briefly, rats were anesthetized with 4% isoflurane, intubated and mechanically ventilated, anesthesia was titrated and vessel catheters inserted. Cardiac arrest was induced by apneic asphyxia with chemical paralysis (vecuronium 2 mg/kg) and discontinuation of ventilation. After 10 minutes of asphyxial cardiac arrest, rats were resuscitated with mechanical ventilation, 100% O2, epinephrine (0.005 mg/kg) and chest compressions. Rats were extubated two hours after resuscitation and placed in a humidity and temperature controlled incubator. Rats were sacrificed by an overdose (5%) of inhaled isoflurane and then perfusion fixed with 100 ml of 4% paraformaldehyde at a perfusion pressure of 100 mmHg. Multiple coronal sections (10 μm thickness) of the brain (Paxinos et al. (1995) J Neurosci Methods 13:139-143) were cryosectioned for future immunostaining and histological evaluation.
(§2) Rats underwent ten minutes of asphyxial cardiac arrest and resuscitation. Five minutes after the return of spontaneous circulation (ROSC), rats were administered 15 ml/kg of iced normal (0.9%) saline (5° C.) (forced hypothermia) or half of the indicated treatment (at room temperature, 21° C.) intravenously over 20 minutes. The first infusion was followed immediately by a second 20-minutee infusion (15 ml/kg) with iced saline (5° C.) for the forced hypothermia group or the second half of the indicated treatment (at 21° C.).
The rat outcome model of asphyxial cardiac arrest was used to test each of the components of the cocktail to determine the effects of the components on NDS and performance in the Morris Water Maze. Rats undergoing forced hypothermia and rats maintained under normothermic conditions (with 0.5 U/kg vasopressin administered) served as controls.

The test system is the same in data set [2]. Put plainly: Neurological deficit score (NDS) in rat model of asphyxial cardiac arrest. It is filed as in vivo. The settings on record: normothermic conditions; for NDS 72 hours after resuscitation: ethanol alone or vasopressin alone. The protocol: as §1, with “evaluation. […]” for “evaluation.”
The total ND score is composed of 5 components as outlined below. A normal rat has a ND score of 0% and a brain-dead rat has an ND score of 100% (Katz et al. (1995) J Cereb Blood Flow Metab 15:1032-1039).
Five minutes after the return of spontaneous circulation (ROSC), rats were administered 15 ml/kg of iced normal (0.9%) saline (5° C.) (forced hypothermia) or half of the indicated treatment (at room temperature, 21° C.) intravenously over 20 minutes. The first infusion was followed immediately by a second 20-minutee infusion (15 ml/kg) with iced saline (5° C.) for the forced hypothermia group or the second half of the indicated treatment (at 21° C.).
The rat outcome model of asphyxial cardiac arrest was used to test each of the components of the cocktail to determine the effects of the components on NDS and performance in the Morris Water Maze. Rats undergoing forced hypothermia and rats maintained under normothermic conditions (with 0.5 U/kg vasopressin administered) served as controls. Raw survival and NDS data is shown in Table 1 and Table 2 provides a summary of the survival and NDS data.

The conditions of data set [3]: Gable (2004); cited from earlier work.
Another data set deals with rats. The settings on record: ethanol alone. The protocol:
as §2

Setting [4] is: 20 mcg/kg, normothermic conditions.
Setting [5] is: 0.005 mg/kg, normothermic conditions.
[6] abbreviates: 0.8 g/kg, normothermic conditions.
[7] abbreviates: 1 mg/kg, normothermic conditions.
Setting [8] is: 0.25 U/kg, normothermic conditions.

With `NCCc1ccc(O)c(O)c1` [Dopamine, dopamine], in data set [1] (setting [4]), the “Average Survival days” value was determined as 1 days and the Survival days is recorded as 1 days.
Regarding `CNC[C@H](O)c1ccc(O)c(O)c1` [Epinephrine, epinephrine], in data set [1] (setting [5]), the “Average Survival days” value is reported as 1 days and the Survival days is 1 days. In data set [1] (0.01 mg/kg, normothermic conditions), the “Average Survival days” value is 1 days.
`CCO` [Ethanol, ethanol]: the “Average Survival days” value in data set [1] (0.5 g/kg, normothermic conditions) worked out at 1 days; in data set [1] (setting [6]), 1 days; in data set [1] (1 g/kg, normothermic conditions) it was 1.5 days; in data set [1] (1.5 g/kg, normothermic conditions), 3 days; in data set [1] (2 g/kg, normothermic conditions), 3.33 days; in data set [1] (2.5 g/kg, normothermic conditions), 1 days. Further, the “Average Survival days” value in data set [1] (3 g/kg, normothermic conditions) is given as 1 days. This compound also displayed a Survival days in data set [1] (setting [6]) of 1 days. Besides, in data set [1], the “effect on mortality / neurological deficit score” value is given as “mild reduction in mortality”. The “NDS day 3, median neurological deficit score” value in data set [2] (1.5 g/kg) is recorded as “NA, (36.5)”; in data set [2] (2 g/kg) it was “(31)”. The “neurological deficit score at 72 hours after resuscitation” value in data set [2] (ethanol alone 1 g/kg, 1.5 g/kg and 2 g/kg) is given as “reduced the neurological deficit score”. The “NDS 72 hours after resuscitation” value in data set [2] worked out at 31. In addition, in data set [3], the “acute ingestion considered toxic” value is reported as “above 10 g/kg”. Moreover, in the data set on rats, the “minimum dose able to reliably induce hypothermia” value is reported as “about 0.75 g/kg”. In addition, the “dose at which the hypothermic effect plateaus” value in the data set with rats (higher doses do not further lower the temperature) came out at 3000 mg/kg. The temperature reached entry in the data set with rats (maintained during infusion) is “about 33 °C”.
`CCN(CC)CC(=O)Nc1c(C)cccc1C` [Lidocaine, 2-(diethylamino)-N-(2,6-dimethylphenyl)acetamide]: in data set [1] (setting [7]), the “Average Survival days” value was determined as 1 days and the Survival days is 1 days.
Regarding `Cc1[nH]c(=O)c(C#N)cc1-c1ccncc1` [Milrinone], the “Average Survival days” value in data set [1] (0.3 mg/kg, normothermic conditions) was 1 days.
On to `CC(=O)N[C@@H](CS)C(=O)O` [N-Acetylcysteine, (2R)-2-acetamido-3-sulfanylpropanoic acid], for which the “Average Survival days” value was 1.5 days in data set [1] (50 mg/kg, normothermic conditions); 3 days in data set [1] (150 mg/kg, normothermic conditions); 2.5 days in data set [1] (300 mg/kg, normothermic conditions). The “NDS day 3, median neurological deficit score” value in data set [2] (150 mg/kg) is given as “(38)”; in data set [2] (300 mg/kg) it was “NA, (40)”. Also, the “NDS day 3” value in data set [2] (300 mg/kg, individual rats) is given as “NA, 40”.
In the case of `NC(=O)CC[C@@H]1NC(=O)[C@H](Cc2ccccc2)NC(=O)[C@H](Cc2ccc(O)cc2)NC(=O)[C@@H](N)CSSC[C@@H](C(=O)N2CCC[C@H]2C(=O)N[C@@H](CCCN=C(N)N)C(=O)NCC(N)=O)NC(=O)[C@H](CC(N)=O)NC1=O` [Vasopressin], the “Average Survival days” value is 5 days in data set [1] (0.5 U/kg, normothermic conditions) and 3 days in data set [1] (0.75 U/kg, normothermic conditions). The “effect on mortality / neurological deficit score” value in data set [1] was “minimal effect on mortality or the neurological deficit score”. For the same compound, in data set [1] (vasopressin alone, normothermic conditions), the enhancement of survival result was “approximately 3 fold”. In addition, the “NDS day 3, median neurological deficit score” value in data set [2] (0.5 U/kg) is “(36)”; in data set [2] (0.75 U/kg) it was “(30)”. Also, the “NDS day 7” value is reported as “NA, NA, 22” in data set [2] (0.5 U/kg, individual rats) and “NA, NA, 22” in data set [2] (0.5 U/kg, single surviving rat (summary table)). Moreover, the “NDS 72 hours after resuscitation” value in data set [2] was 30. Besides, the “neurological deficits 72 hours after resuscitation” value in data set [2] (vasopressin alone) was “reduced neurological deficits”.
Consider Insulin: antihyperglycemic compound, for which, in data set [1] (setting [8]), the “Average Survival days” value is 2 days and the Survival days amounted to 2 days.
